Data: article PMC5927461, “Activation of host transient receptor potential (TRP) channels by praziquantel stereoisomers” (PLoS Neglected Tropical Diseases, 2018)

Assays:
TRPV1 = TRPV1 (Homo sapiens, UniProt Q8NER1); set-up: method as in PMID 29054683; settings: 100μM; cited from earlier work
[1] = test system: mouse mesenteric arteries; test: Wire myography, mesenteric artery strips at resting (basal) tone; settings: 100μM added at basal tone
hTRPC3 = target: T1, hTRPC3 (Homo sapiens, UniProt Q13507); test: TRP channel panel primary screen (membrane potential dye, stable HEK line); type: cell-based; settings: 0.3-300μM; effects over the micromolar range
T1 sequence (Q13507 1-921): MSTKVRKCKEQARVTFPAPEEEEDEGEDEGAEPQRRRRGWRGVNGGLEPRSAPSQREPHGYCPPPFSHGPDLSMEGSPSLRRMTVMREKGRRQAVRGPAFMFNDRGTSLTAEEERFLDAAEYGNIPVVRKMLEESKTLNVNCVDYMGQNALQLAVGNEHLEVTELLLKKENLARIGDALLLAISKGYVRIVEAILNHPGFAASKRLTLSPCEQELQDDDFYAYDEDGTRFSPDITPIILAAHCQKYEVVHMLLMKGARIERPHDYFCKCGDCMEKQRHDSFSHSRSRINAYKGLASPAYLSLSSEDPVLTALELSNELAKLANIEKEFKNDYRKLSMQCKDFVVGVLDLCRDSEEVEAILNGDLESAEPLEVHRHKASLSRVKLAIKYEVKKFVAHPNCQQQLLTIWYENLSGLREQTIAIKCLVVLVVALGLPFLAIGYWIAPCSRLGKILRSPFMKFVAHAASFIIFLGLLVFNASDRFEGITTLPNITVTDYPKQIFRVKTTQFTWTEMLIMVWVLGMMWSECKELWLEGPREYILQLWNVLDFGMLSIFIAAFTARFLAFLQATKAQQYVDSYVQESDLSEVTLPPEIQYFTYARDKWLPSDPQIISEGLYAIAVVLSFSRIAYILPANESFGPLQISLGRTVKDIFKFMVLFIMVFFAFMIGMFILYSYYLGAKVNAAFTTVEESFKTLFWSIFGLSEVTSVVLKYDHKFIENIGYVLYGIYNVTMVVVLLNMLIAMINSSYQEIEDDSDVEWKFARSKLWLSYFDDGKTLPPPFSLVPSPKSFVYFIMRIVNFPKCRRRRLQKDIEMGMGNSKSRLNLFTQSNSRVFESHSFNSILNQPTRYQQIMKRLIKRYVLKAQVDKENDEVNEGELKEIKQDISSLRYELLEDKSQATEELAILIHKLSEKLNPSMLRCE
Method: (§1) ±PZQ, (R)-PZQ and (S)-PZQ were screened against a panel of 17 human TRP channels (SB Drug Discovery, Glasgow). For all hTRPs, except for TRPM5, individual channel constructs were stably expressed in HEK cell lines. TRMP5 was expressed in a stable CHO cell line. In preparation for the assays, cells were trypsinized, counted and seeded (50,000 cells/well) in black, clear-bottomed 96 well plates and incubated overnight. The following day, cells were loaded with a fluorescent indicator (FLIPR Calcium 5 Assay kit for TRPA1, TRPV1, TRPV2, TRPV3, TRPV4, TRPV5, TRPC1, TRPM2, TRPM3 and TRPM8, or a membrane potential dye (FLIPR Membrane Potential Red Assay Kit for TRPC3, TRPC4, TRPC5, TRPC6, TRPC7, TRPM4 and TRPM5) prepared according to the manufacturer’s instructions in HEPES buffered Hank’s balanced salt solution (HBSS). Dye solution (10μl) was added to appropriate wells and incubated at 37°C for 1 hour. All assays were performed at room temperature. Compounds were tested at 0.3, 1, 3, 10, 30, 100μM and 300μM in triplicate in both agonist and antagonist mode to determine EC50 and IC50 values, which were compared with reference compounds. Compounds were screened at a final DMSO concentration of 0.5%. Plates were screened using a Flexstation (Molecular Devices, FX01138), monitoring fluorescence values every ~1.52 seconds. For ‘agonist mode’ testing, 10μl of the appropriate test compound, or standard agonist, was added after 20 seconds and fluorescence monitored for 2 minutes at λex = 485nm, λem = 525nm for Ca^2+ imaging and λex = 530nm, λem = 565nm for membrane potential measurements. For ‘antagonist mode’ testing, test compounds and standard inhibitors were added to appropriate wells and incubated for 10 minutes at room temperature prior to addition of standard agonist compound.

hTRPC7 = target: T2, hTRPC7 (Homo sapiens, UniProt Q9HCX4); test: as above; type: cell-based; settings: 0.3-300μM; effects over the micromolar range
T2 sequence (Q9HCX4 1-862): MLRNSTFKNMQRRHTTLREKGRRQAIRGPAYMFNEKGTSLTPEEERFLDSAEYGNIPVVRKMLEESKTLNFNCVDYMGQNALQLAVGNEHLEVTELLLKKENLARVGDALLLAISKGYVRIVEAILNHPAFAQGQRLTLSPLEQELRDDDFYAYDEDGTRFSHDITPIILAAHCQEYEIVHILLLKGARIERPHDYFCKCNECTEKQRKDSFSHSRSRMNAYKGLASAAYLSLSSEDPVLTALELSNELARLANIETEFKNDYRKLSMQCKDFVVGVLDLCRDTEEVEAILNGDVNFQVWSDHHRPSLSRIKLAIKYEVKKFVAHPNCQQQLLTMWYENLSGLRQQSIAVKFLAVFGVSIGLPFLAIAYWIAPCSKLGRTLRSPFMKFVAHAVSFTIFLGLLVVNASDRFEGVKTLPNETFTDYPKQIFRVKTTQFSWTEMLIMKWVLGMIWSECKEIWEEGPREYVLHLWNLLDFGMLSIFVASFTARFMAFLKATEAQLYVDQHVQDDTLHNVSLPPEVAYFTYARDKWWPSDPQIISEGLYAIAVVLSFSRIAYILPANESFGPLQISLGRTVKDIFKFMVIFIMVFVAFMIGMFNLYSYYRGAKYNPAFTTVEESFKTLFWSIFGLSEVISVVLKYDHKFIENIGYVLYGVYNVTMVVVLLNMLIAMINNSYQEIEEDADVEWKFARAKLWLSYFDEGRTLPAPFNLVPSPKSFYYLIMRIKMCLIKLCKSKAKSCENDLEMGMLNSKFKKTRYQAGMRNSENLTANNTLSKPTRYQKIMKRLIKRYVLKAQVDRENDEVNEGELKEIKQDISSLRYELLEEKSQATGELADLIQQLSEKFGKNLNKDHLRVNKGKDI
Method: as §1

Chain of TRPV1 (Q8NER1 whole entry): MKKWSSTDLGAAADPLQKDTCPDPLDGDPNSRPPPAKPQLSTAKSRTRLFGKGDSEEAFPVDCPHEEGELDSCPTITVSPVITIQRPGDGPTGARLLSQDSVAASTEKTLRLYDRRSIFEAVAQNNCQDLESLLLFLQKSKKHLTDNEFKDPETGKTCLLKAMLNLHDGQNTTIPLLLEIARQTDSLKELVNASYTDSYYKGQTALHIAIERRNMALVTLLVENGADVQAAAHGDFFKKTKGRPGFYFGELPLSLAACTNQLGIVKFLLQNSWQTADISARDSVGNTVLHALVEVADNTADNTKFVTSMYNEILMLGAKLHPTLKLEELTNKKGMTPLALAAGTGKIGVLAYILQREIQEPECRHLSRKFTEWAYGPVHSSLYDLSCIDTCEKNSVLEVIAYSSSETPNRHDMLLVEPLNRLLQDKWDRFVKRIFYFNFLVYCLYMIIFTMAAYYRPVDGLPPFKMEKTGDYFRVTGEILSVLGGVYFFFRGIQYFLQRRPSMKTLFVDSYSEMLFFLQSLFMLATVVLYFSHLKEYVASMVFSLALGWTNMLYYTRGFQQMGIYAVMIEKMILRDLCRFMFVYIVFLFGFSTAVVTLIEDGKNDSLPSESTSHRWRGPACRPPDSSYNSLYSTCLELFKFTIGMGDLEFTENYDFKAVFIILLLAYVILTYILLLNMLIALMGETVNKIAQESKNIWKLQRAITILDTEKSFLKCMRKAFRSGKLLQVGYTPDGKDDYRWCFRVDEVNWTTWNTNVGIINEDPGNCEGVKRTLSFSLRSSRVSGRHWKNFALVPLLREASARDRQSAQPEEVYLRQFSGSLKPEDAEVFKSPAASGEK

| Structure (SMILES) | activation of TRPV1 (TRPV1) | change of tension at resting tone [1] | activity at hTRPC3 in primary screen (hTRPC3) | activity at hTRPC7 in primary screen (hTRPC7) |
| --- | --- | --- | --- | --- |
| O=C(C1CCCCC1)N1CC(=O)N2CCc3ccccc3C2C1 (racemic) [±PZQ, praziquantel] | low potency activation | marked contraction | displayed activity | displayed activity |
| O=C(C1CCCCC1)N1CC(=O)N2CCc3ccccc3[C@H]2C1 [(S)-PZQ] |  |  | activated | activated |
